Data: patent US11081236B2, “Diagnostic and therapeutic methods for the treatment of breast cancer” (GENENTECH, INC., priority 2018, dated 2021)

Legend:
Assay type in all cases: cell-based
EFM19 = assay: RNA sequencing after E2 or DMSO treatment, EFM19
Protocol: (§1) To derive a transcriptional signature of ER pathway activity, RNA sequencing was performed on seven breast cancer cell lines following treatment with either DMSO or 1 μM estradiol (E2) for 24 hours. Briefly, RNA libraries for cell lines were made with TRUSEQ® RNA sample preparation kit (ILLUMINA®) according to the manufacturer's protocol. The libraries were sequenced on an ILLUMINA® Hi Seq 2000, using 1-4 lanes per cell line. RNA sequencing (RNA-seq) data were analyzed with HTSeqGenie (R package version 3.14.0) in BioConductor (Huber et al. Nature Methods. 112:115-21, 2015) as follows: reads were trimmed to 75 base pairs (bp), filtered for quality and rRNA/adapter contamination, and aligned to the reference genome GRCh38 using GSNAP (Wu et al. Bioinforma Oxf Engl. 26:873-81, 2010). Gene expression was quantified as Reads per Kilobase of exon model per Million mapped reads normalized by size factor (nRPKM), defined as number of reads aligning to a gene in a sample/(total number of uniquely mapped reads for that sample x gene length x size factor). Genes without gene symbol and genes of uncertain function (LOC and Corf symbols) were excluded.

MDA-MB-330 = assay: RNA sequencing after E2 or DMSO treatment, MDA-MB-330
Protocol: as §1

HCC1500 = assay: RNA sequencing after E2 or DMSO treatment, HCC1500
Protocol: as §1

BT474 = assay: RNA sequencing after E2 or DMSO treatment, BT474
Protocol: as §1

[1] = gene NBEA, 1 μM E2 24 hours vs DMSO
[2] = gene PNPLA7, 1 μM E2 24 hours vs DMSO
[3] = gene PSCA, 1 μM E2 24 hours vs DMSO
[4] = gene SEMASE, 1 μM E2 24 hours vs DMSO
[5] = gene SSPO, 1 μM E2 24 hours vs DMSO
[6] = gene STON1, 1 μM E2 24 hours vs DMSO
[7] = gene TGFB3, 1 μM E2 24 hours vs DMSO
[8] = gene TP53INP1, 1 μM E2 24 hours vs DMSO
[9] = gene TP53INP2, 1 μM E2 24 hours vs DMSO
[10] = gene BAMBI, 1 μM E2 24 hours vs DMSO
[11] = gene BCAS1, 1 μM E2 24 hours vs DMSO
[12] = gene CCNG2, 1 μM E2 24 hours vs DMSO
[13] = gene DDEE4, 1 μM E2 24 hours vs DMSO
[14] = gene EGLN3, 1 μM E2 24 hours vs DMSO
[15] = gene FAM1718, 1 μM E2 24 hours vs DMSO
[16] = gene GRM4, 1 μM E2 24 hours vs DMSO
[17] = gene IL1R1, 1 μM E2 24 hours vs DMSO
[18] = gene LIPH, 1 μM E2 24 hours vs DMSO

## C[C@]12CC[C@@H]3c4ccc(O)cc4CC[C@H]3[C@@H]1CC[C@@H]2O [Compound E2, estradiol]
EFM19; [1]
  Log2 FC E2 vs no E2: NBEA: −1.105
EFM19; [2]
  Log2 FC E2 vs no E2: PNPLA7: −0.901
EFM19; [3]
  Log2 FC E2 vs no E2: PSCA: −1.593
EFM19; [4]
  Log2 FC E2 vs no E2: SEMASE: −1.100
EFM19; [5]
  Log2 FC E2 vs no E2: SSPO: −0.605
EFM19; [6]
  Log2 FC E2 vs no E2: STON1: −1.500
EFM19; [7]
  Log2 FC E2 vs no E2: TGFB3: −1.350
EFM19; [8]
  Log2 FC E2 vs no E2: TP53INP1: −1.461
EFM19; [9]
  Log2 FC E2 vs no E2: TP53INP2: −1.373
MDA-MB-330; [10]
  Log2 FC E2 vs no E2: BAMBI: −1.352
MDA-MB-330; [11]
  Log2 FC E2 vs no E2: BCAS1: −1.772
MDA-MB-330; [12]
  Log2 FC E2 vs no E2: CCNG2: −1.009
MDA-MB-330; [13]
  Log2 FC E2 vs no E2: DDEE4: −1.321
MDA-MB-330; [14]
  Log2 FC E2 vs no E2: EGLN3: −2.785
MDA-MB-330; [15]
  Log2 FC E2 vs no E2: FAM1718: −2.790
MDA-MB-330; [16]
  Log2 FC E2 vs no E2: GRM4: −2.281
MDA-MB-330; [17]
  Log2 FC E2 vs no E2: IL1R1: −0.941
MDA-MB-330; [18]
  Log2 FC E2 vs no E2: LIPH: −1.737
MDA-MB-330; [1]
  Log2 FC E2 vs no E2: NBEA: −1.044
MDA-MB-330; [2]
  Log2 FC E2 vs no E2: PNPLA7: −1.084
MDA-MB-330; [3]
  Log2 FC E2 vs no E2: PSCA: −2.529
MDA-MB-330; [4]
  Log2 FC E2 vs no E2: SEMASE: −2.427
MDA-MB-330; [5]
  Log2 FC E2 vs no E2: SSPO: −1.383
MDA-MB-330; [6]
  Log2 FC E2 vs no E2: STON1: −1.081
MDA-MB-330; [7]
  Log2 FC E2 vs no E2: TGFB3: −1.111
MDA-MB-330; [8]
  Log2 FC E2 vs no E2: TP53INP1: −1.304
MDA-MB-330; [9]
  Log2 FC E2 vs no E2: TP53INP2: −1.210
HCC1500; [10]
  Log2 FC E2 vs no E2: BAMBI: −1.438
HCC1500; [11]
  Log2 FC E2 vs no E2: BCAS1: −2.105
HCC1500; [12]
  Log2 FC E2 vs no E2: CCNG2: −1.525
HCC1500; [13]
  Log2 FC E2 vs no E2: DDEE4: −1.865
HCC1500; [14]
  Log2 FC E2 vs no E2: EGLN3: −2.504
HCC1500; [15]
  Log2 FC E2 vs no E2: FAM1718: −0.683
HCC1500; [16]
  Log2 FC E2 vs no E2: GRM4: −1.071
HCC1500; [17]
  Log2 FC E2 vs no E2: IL1R1: −1.943
HCC1500; [18]
  Log2 FC E2 vs no E2: LIPH: −1.384
HCC1500; [1]
  Log2 FC E2 vs no E2: NBEA: −1.190
HCC1500; [2]
  Log2 FC E2 vs no E2: PNPLA7: −1.376
HCC1500; [3]
  Log2 FC E2 vs no E2: PSCA: −1.726
HCC1500; [4]
  Log2 FC E2 vs no E2: SEMASE: −1.058
HCC1500; [5]
  Log2 FC E2 vs no E2: SSPO: −1.304
HCC1500; [6]
  Log2 FC E2 vs no E2: STON1: −1.279
HCC1500; [7]
  Log2 FC E2 vs no E2: TGFB3: −1.214
HCC1500; [8]
  Log2 FC E2 vs no E2: TP53INP1: −1.777
HCC1500; [9]
  Log2 FC E2 vs no E2: TP53INP2: −1.073
BT474; [10]
  Log2 FC E2 vs no E2: BAMBI: −1.153
BT474; [11]
  Log2 FC E2 vs no E2: BCAS1: −1.110
BT474; [12]
  Log2 FC E2 vs no E2: CCNG2: −0.935
BT474; [13]
  Log2 FC E2 vs no E2: DDEE4: −0.862
BT474; [14]
  Log2 FC E2 vs no E2: EGLN3: −0.118
BT474; [15]
  Log2 FC E2 vs no E2: FAM1718: −1.279
BT474; [16]
  Log2 FC E2 vs no E2: GRM4: −1.883
BT474; [17]
  Log2 FC E2 vs no E2: IL1R1: −1.490
BT474; [18]
  Log2 FC E2 vs no E2: LIPH: −0.804
BT474; [1]
  Log2 FC E2 vs no E2: NBEA: −0.346
BT474; [2]
  Log2 FC E2 vs no E2: PNPLA7: −1.427
BT474; [3]
  Log2 FC E2 vs no E2: PSCA: −1.956
BT474; [4]
  Log2 FC E2 vs no E2: SEMASE: −1.101
BT474; [5]
  Log2 FC E2 vs no E2: SSPO: −1.739
BT474; [6]
  Log2 FC E2 vs no E2: STON1: −0.650
BT474; [7]
  Log2 FC E2 vs no E2: TGFB3: −0.304
BT474; [8]
  Log2 FC E2 vs no E2: TP53INP1: −1.496
BT474; [9]
  Log2 FC E2 vs no E2: TP53INP2: −2.069
